Values after ≈ are worked out from the molar mass of the structure shown.
Legend:
[1] = target: T1, Protein kinase C alpha type (Homo sapiens, UniProt P17252); experiment: Inhibition of PKCalpha
[2] = target: T2, Protein kinase C beta type (Homo sapiens, UniProt P05771); experiment: Inhibition of PKCbeta1
Target sequence in this assay (P05771 whole entry): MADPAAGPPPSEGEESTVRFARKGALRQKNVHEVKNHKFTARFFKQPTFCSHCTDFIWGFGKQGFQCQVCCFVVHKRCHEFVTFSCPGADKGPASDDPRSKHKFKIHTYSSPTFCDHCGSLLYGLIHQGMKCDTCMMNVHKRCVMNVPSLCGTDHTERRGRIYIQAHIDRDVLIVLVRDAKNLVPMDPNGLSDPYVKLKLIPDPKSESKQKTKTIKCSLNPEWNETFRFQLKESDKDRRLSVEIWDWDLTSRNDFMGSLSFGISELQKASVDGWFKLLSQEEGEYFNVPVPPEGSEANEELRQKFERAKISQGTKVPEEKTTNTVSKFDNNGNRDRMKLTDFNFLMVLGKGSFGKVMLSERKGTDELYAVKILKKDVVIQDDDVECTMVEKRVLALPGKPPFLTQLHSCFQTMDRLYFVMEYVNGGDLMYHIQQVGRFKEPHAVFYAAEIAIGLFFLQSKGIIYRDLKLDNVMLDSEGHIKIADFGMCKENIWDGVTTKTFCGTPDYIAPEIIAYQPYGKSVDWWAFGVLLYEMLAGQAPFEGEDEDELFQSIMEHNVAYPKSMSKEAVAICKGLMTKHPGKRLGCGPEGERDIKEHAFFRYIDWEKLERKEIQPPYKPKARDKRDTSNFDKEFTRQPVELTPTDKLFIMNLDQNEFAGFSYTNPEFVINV

[3] = target: T2, Protein kinase C beta type; experiment: Inhibition of PKCbeta2
Target sequence in this assay (P05771 whole entry): as above

[4] = target: T3, Protein kinase C delta type (Homo sapiens, UniProt Q05655); experiment: Inhibition of PKCdelta
Target sequence in this assay (Q05655 whole entry): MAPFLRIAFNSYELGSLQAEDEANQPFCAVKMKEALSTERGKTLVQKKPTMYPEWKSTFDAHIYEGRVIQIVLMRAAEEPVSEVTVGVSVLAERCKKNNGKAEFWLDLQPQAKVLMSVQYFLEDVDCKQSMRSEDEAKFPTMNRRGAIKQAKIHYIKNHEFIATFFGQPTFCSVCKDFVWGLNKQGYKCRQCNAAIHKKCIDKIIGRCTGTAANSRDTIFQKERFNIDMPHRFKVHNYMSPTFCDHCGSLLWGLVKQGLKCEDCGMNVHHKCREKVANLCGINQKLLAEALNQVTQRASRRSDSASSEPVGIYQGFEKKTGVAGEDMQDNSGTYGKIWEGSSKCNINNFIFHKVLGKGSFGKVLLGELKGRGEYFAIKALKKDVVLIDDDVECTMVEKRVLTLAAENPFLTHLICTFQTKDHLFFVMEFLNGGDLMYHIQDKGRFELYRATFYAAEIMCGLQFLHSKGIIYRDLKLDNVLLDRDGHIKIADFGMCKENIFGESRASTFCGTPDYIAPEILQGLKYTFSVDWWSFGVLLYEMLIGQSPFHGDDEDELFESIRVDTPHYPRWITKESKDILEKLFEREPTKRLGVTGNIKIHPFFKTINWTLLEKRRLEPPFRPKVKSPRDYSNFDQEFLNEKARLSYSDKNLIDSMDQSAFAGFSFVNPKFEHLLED

A549 = experiment: Cytotoxicity against human A549 cells; format: functional, cell-based
P388 = experiment: Cytotoxicity against mouse P388 cells; format: functional, cell-based
[5] = Inhibition of cell adhesion in mouse EL-4.IL-2 cells; format: functional, cell-based
[6] = Induction of cell adhesion in mouse EL-4.IL-2 cells; format: functional, cell-based
[7] = target: T1, Protein kinase C alpha type; experiment: Agonist activity at PKCalpha at 50 ug/ml; format: functional
[8] = target: T2, Protein kinase C beta type; experiment: Agonist activity at PKCbeta1 at 50 ug/ml; format: functional
Target sequence in this assay (P05771 2-671 limits assumed): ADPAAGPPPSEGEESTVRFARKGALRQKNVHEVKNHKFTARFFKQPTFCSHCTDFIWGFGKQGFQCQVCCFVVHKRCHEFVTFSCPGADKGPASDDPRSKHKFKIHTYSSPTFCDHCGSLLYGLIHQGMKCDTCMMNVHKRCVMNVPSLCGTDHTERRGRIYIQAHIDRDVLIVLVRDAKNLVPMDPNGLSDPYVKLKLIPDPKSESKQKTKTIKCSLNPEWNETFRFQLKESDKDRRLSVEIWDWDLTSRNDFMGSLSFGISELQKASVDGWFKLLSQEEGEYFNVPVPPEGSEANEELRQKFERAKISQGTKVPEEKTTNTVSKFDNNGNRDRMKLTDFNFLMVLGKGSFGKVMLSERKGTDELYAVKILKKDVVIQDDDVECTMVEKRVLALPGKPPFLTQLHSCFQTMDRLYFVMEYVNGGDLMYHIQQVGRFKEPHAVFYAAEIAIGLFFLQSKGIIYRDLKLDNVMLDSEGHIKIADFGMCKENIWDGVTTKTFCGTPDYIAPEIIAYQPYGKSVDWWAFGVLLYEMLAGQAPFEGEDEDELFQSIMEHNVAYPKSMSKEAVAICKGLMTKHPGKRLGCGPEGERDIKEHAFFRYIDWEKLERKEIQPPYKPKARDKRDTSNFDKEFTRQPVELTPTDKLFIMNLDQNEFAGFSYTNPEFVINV

[9] = target: T2, Protein kinase C beta type; experiment: Agonist activity at PKCbeta2 at 50 ug/ml; format: functional
Target sequence in this assay (P05771 2-671 limits assumed): as above

[10] = target: T3, Protein kinase C delta type; experiment: Agonist activity at PKCdelta at 50 ug/ml; format: functional
Target sequence in this assay (Q05655 whole entry, looked up): as the sequence (Q05655 whole entry) above

[11] = target: T4, Protein kinase C epsilon type (Homo sapiens) (UniProt Q02156); experiment: Agonist activity at PKCepsilon at 50 ug/ml; format: functional
T4 sequence (whole entry): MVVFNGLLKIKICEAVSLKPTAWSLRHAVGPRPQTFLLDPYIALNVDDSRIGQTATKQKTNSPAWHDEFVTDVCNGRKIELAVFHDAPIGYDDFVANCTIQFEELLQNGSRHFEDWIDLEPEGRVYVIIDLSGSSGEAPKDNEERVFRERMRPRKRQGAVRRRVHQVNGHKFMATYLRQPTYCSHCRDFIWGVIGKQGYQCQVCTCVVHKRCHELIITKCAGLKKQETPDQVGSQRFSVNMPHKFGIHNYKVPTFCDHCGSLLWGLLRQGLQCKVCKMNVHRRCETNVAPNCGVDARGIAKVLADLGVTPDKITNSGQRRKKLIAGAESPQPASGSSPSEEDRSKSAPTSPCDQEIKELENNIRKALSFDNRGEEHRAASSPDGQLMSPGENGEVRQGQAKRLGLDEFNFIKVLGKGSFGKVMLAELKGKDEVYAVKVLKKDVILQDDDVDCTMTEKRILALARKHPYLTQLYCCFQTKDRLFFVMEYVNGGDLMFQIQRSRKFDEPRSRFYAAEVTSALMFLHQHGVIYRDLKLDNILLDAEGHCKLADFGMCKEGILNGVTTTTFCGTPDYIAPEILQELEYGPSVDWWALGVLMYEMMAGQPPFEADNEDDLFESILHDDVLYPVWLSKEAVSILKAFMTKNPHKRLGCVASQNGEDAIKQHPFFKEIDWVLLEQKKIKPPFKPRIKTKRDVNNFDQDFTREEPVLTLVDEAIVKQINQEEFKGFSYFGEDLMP

[12] = target: Protein kinase C gamma type (Homo sapiens) (UniProt P05129); experiment: Agonist activity at PKCgamma at 50 ug/ml; format: functional

CCCCCCCCCCCCCCCC[C@@]1(OC)C=C[C@@H](CC(=O)OC)OO1 [CHONDRILLIN]
IC50 [1]: 87.2 µM | IC50 [2]: 119 µM | IC50 [3]: 119 µM | IC50 [4]: 55.7 µM

COC(=O)C[C@@]1(C)C[C@](C)(CC(C)CCCCCCc2ccccc2)OO1 (some centres undefined) [EPIPLAKINIC ACID E METHYL ESTER]
IC50 (A549): 2 µg/mL (≈ 5.31 µM) | IC50 (P388): 2.5 µg/mL (≈ 6.64 µM) | IC50 [5]: 4.6 µg/mL (≈ 12.2 µM)

CC(CCCCCCCCc1ccccc1)C[C@]1(C)C[C@]2(C)OC(=O)C[C@@H]2OO1 (some centres undefined) [PLAKORTOLIDE B]
IC50 (A549): 1.3 µg/mL (≈ 3.23 µM) | IC50 (P388): 0.4 µg/mL (≈ 0.994 µM) | IC50 [6]: 4.4 µg/mL (≈ 10.9 µM) | Activity [7]: -19% | Activity [8]: -13% | Activity [9]: -27% | Activity [10]: -9% | Activity [11]: -38% | Activity [12]: -9%

CC(CCCCCCc1ccccc1)CC(C)C[C@]1(C)C[C@]2(C)OC(=O)C[C@@H]2OO1 (some centres undefined) [PLAKORTOLIDE D]
IC50 (A549): 3.8 µg/mL (≈ 9.12 µM) | IC50 (P388): 0.8 µg/mL (≈ 1.92 µM) | IC50 [5]: 15.8 µg/mL (≈ 37.9 µM)

From ChEMBL document CHEMBL1148071, “New cytotoxic peroxylactones from the marine sponge, Plakinastrella onkodes” (J Nat Prod, 1994)
